Data reported in the supplement of paper PMC4862054.

Tests used:
MDA-MB-436 [1] = test: normalised viability (% of control), CellTiter-Blue; higher = more viable cells (about 100 = DMSO control); conditions: incubation time: 72 h
Method in brief: (§1)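 Vehicle (100) and a positive kill control (0) anchored the normalisation of each plate, and Z'-factor was used for quality control. Breast cancer cell lines in 20 µl suspension were incubated 72 h over compound in 5 µl medium in 384-well plates, followed by CellTiter-Blue at 560/590 nm. The value is normalised viability at a single listed concentration of the series.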

BT-549 [2] = test: as above; conditions: incubation time: 72 h
Method in brief: as §1

DU-4475 [3] = test: as above; conditions: incubation time: 72 h
Method in brief: as §1

MDA-MB-453 [4] = test: as above; conditions: incubation time: 72 h
Method in brief: as §1

MDA-MB-436 [5] = test: normalised viability (% of control), CellTiter-Blue; higher = more viable cells (about 100 = DMSO control); conditions: 100 nM; incubation time: 72 h
Method: (§2)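 DSRT, CellTiter-Blue viability, 72 h incubation. Signal is normalised to DMSO and benzethonium chloride controls. Value is the normalised response at dose 3.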

Hs578T [6] = test: as above; conditions: 100 nM; incubation time: 72 h
Method: as §2

HCC1143 [7] = test: as above; conditions: 100 nM; incubation time: 72 h
Method: as §2

BT-549 [8] = test: as above; conditions: 100 nM; incubation time: 72 h
Method: as §2

CAL-85-1 [9] = test: as above; conditions: 10 nM; incubation time: 72 h
Method: as §2

MFM-223 = test: as above; conditions: 100 nM; incubation time: 72 h
Method: as §2

CAL-120 = test: as above; conditions: 100 nM; incubation time: 72 h
Method: as §2

MDA-MB-231 [10] = test: as above; conditions: 100 nM; incubation time: 72 h
Method: as §2

DU-4475 [11] = test: as above; conditions: 10 nM; incubation time: 72 h
Method: as §2

MDA-MB-468 = test: as above; conditions: 100 nM; incubation time: 72 h
Method: as §2

HCC1599 = test: as above; conditions: 100 nM; incubation time: 72 h
Method: as §2

HDQ-P1 = test: as above; conditions: 10 nM; incubation time: 72 h
Method: as §2

CAL-148 [12] = test: as above; conditions: 10 nM; incubation time: 72 h
Method: as §2

BT-474 [13] = test: as above; conditions: 100 nM; incubation time: 72 h
Method: as §2

SK-BR-3 = test: as above; conditions: 100 nM; incubation time: 72 h
Method: as §2

MDA-MB-453 [14] = test: as above; conditions: 10 nM; incubation time: 72 h
Method: as §2

CAL-51 = test: as above; conditions: 10 nM; incubation time: 72 h
Method: as §2

HCC1937 [15] = test: as above; conditions: 100 nM; incubation time: 72 h
Method: as §2

Hs578T [16] = test: drug sensitivity score (DSS), CellTox Green (DSS (AUC-based score)); higher = stronger drug effect (viability inhibition or cytotoxicity); extreme values may be limits of the assay; conditions: incubation time: 72 h
Method in brief: (§3)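 Normalisation on every plate relied on 0.1 % DMSO and a positive kill control. The plates, 384-well format, held compound at 5 concentrations 10-fold apart across a compound-specific 10,000-fold range, and breast cancer cell lines in 20 µl suspension were incubated on them for 72 h before CellTox Green and then CellTiter-Glo readings. The drug sensitivity score derives from the area under the fitted dose-response curve.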

HCC1143 [17] = test: as above; conditions: incubation time: 72 h
Method in brief: as §3

CAL-85-1 [18] = test: as above; conditions: incubation time: 72 h
Method in brief: as §3

MDA-MB-231 [19] = test: as above; conditions: incubation time: 72 h
Method in brief: as §3

CAL-148 [20] = test: as above; conditions: incubation time: 72 h
Method in brief: as §3

BT-474 [21] = test: as above; conditions: incubation time: 72 h
Method in brief: as §3

HCC1937 [22] = test: as above; conditions: incubation time: 72 h
Method in brief: as §3

Row | Compound | normalised viability (MDA-MB-436 [1]; 10 nM) | normalised viability (MDA-MB-436 [1]; 1000 nM) | normalised viability (MDA-MB-436 [1]; 10000 nM) | normalised viability (BT-549 [2]; 10 nM) | normalised viability (BT-549 [2]; 1000 nM) | normalised viability (BT-549 [2]; 10000 nM) | normalised viability (DU-4475 [3]; 3 nM) | normalised viability (DU-4475 [3]; 30 nM) | normalised viability (DU-4475 [3]; 100 nM) | normalised viability (MDA-MB-453 [4]; 3 nM) | normalised viability (MDA-MB-453 [4]; 30 nM) | normalised viability (MDA-MB-453 [4]; 100 nM) | normalised viability (MDA-MB-436 [5]) | normalised viability (Hs578T [6]) | normalised viability (HCC1143 [7]) | normalised viability (BT-549 [8]) | normalised viability (CAL-85-1 [9]) | normalised viability (MFM-223) | normalised viability (CAL-120) | normalised viability (MDA-MB-231 [10]) | normalised viability (DU-4475 [11]) | normalised viability (MDA-MB-468) | normalised viability (HCC1599) | normalised viability (HDQ-P1) | normalised viability (CAL-148 [12]) | normalised viability (BT-474 [13]) | normalised viability (SK-BR-3) | normalised viability (MDA-MB-453 [14]) | normalised viability (CAL-51) | normalised viability (HCC1937 [15]) | drug sensitivity score (Hs578T [16]) | drug sensitivity score (HCC1143 [17]) | drug sensitivity score (CAL-85-1 [18]) | drug sensitivity score (MDA-MB-231 [19]) | drug sensitivity score (CAL-148 [20]) | drug sensitivity score (BT-474 [21]) | drug sensitivity score (HCC1937 [22])
1 | CCC1=C[C@@H]2CN(C1)Cc1c([nH]c3ccccc13)[C@@](C(=O)OC)(c1cc3c(cc1OC)N(C)[C@H]1[C@@](O)(C(=O)OC)[C@H](OC(C)=O)[C@]4(CC)C=CCN5CC[C@]31[C@@H]54)C2 [Vinorelbine] | 109% | 41.4% | 34.6% | 94.9% | 15.8% | 11.4% | 96.7% | 91.3% | 79.4% | 110% | 43% | 25.1% | 56.8% | 28.7% | 54.4% | 23.4% | 91.3% | 49.1% | 30.6% | 37.2% | 107% | 39.9% | 90.4% | 99.6% | 105% | 43.6% | 15.7% | 61.1% | 99.9% | 28% | 23.3 | 0 | 11.7 | 18.1 | 9.47 | 10 | 0
2 | O=C1CCC(N2C(=O)c3ccccc3C2=O)C(=O)N1 (stereo not drawn) [Thalidomide] | 106% | 87% | 96.8% | 76.7% | 91.5% | 81.7% | 98.9% | 99.7% | 109% | 99% | 99.3% | 89.7% | 105% | 91.9% | 112% | 88% | 100% | 90.7% | 105% | 106% | 91.3% | 98.2% | 108% | 101% | 107% | 109% | 111% | 98.3% | 90.7% | 90.2% | 0 | 0 | 0 | 0 | 1.58 | 0 | 0
3 | CCC1(c2ccc(N)cc2)CCC(=O)NC1=O (stereo not drawn) [Aminoglutethimide] | 95.9% | 112% | 91.6% | 84.2% | 101% | 76.4% | 107% | 86.9% | 85.2% | 94.9% | 93% | 89.2% | 90.9% | 80.6% | 113% | 73.2% | 101% | 97% | 121% | 93.7% | 104% | 102% | 104% | 93.5% | 99.1% | 112% | 105% | 86.3% | 93.5% | 91.3% | 0 | 0 | 0 | 0 | 0 | 0 | 0
4 | CN(C)/N=N/c1[nH]cnc1C(N)=O [Dacarbazine] | 100% | 78.7% | 93.8% | 103% | 89.2% | 106% | 90.4% | 89.6% | 92.4% | 103% | 102% | 102% | 86.8% | 106% | 89.2% | 99.4% | 91.8% | 88.8% | 77.9% | 93.1% | 98.4% | 112% | 78.8% | 111% | 96.4% | 117% | 86.9% | 99.2% | 85.9% | 106% | 0 | 0 | 0 | 0 | 2.9 | 0 | 3.14
